Experimental findings from patent US6087493A, “Porphyrin compounds as telomerase inhibitors” (Regents of the University of Texas System, priority 1998, dated 2000) are described below.

The target in the assay is human telomerase (Homo sapiens, UniProt O14746). Description: Telomerase inhibition, primer extension assay in HeLa cell extract. In kind it is biochemical. As to conditions: for inhibition at 25 µM: read-out: % Inhibition of telomerase.
[1] abbreviates: Table 15, concentration fixed at 25 μM.

Read-outs that look alike come from different tables or passages of the source.

Sequence of human telomerase (O14746 whole entry): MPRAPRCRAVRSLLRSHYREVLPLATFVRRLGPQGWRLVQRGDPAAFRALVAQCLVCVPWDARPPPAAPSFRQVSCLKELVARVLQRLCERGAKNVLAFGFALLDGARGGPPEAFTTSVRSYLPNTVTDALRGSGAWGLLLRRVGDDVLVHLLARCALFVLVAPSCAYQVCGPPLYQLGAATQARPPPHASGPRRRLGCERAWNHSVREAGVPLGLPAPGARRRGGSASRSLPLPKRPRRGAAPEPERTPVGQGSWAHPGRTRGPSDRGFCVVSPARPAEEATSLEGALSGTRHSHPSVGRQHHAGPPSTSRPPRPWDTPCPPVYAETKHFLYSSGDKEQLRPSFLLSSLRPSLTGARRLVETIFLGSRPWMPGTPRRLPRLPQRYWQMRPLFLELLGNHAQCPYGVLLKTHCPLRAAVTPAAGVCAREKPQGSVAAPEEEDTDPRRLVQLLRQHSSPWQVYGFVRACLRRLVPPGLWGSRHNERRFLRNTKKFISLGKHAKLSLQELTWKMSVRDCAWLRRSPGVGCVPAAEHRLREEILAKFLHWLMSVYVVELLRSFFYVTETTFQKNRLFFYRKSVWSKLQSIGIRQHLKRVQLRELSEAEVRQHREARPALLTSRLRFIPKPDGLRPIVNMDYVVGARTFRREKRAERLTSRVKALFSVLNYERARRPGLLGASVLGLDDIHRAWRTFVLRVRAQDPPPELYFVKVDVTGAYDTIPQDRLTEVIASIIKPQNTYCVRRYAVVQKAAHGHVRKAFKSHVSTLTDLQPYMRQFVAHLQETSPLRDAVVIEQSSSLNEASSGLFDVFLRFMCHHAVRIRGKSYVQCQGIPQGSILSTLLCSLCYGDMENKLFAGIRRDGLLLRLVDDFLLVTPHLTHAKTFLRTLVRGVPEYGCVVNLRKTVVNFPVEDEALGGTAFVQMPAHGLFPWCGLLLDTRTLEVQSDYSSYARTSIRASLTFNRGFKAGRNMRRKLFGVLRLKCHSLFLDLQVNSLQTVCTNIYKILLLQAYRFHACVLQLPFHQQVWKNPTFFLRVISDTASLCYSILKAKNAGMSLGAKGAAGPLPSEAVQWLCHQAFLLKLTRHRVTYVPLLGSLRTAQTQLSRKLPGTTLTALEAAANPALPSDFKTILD

Turning to “5,10-di-(N-methyl-3-quinolyl)-15,20-di-(N-methyl-3-pyridyl)porphine chloride [Compound D12]”, the “% Inhibition of telomerase” value (25 μM, Table 6) was found to be 80%.
As for “5,10-di-(N-methyl-4-pyridyl)-15,20-di-(3-nitrophenyl)porphine chloride [Compound D20]”, the “telomerase inhibition in words” value is “good activity”. For the same molecule, the “% Inhibition of telomerase” value (25 μM, Table 10) worked out at 70%.
Consider `Nc1ccc(-c2c3nc(c(-c4ccc(N)cc4)c4ccc([nH]4)c(-c4ccc(N)cc4)c4nc(c(-c5ccc(N)cc5)c5ccc2[nH]5)C=C4)C=C3)cc1` [Compound B1, Tetra-(4-aminophenyl)porphyrin], for which the inhibition at 25 µM (25 μM, Table 13) was 50%.
On to `Nc1cccc(-c2c3nc(c(-c4cccc(N)c4)c4ccc([nH]4)c(-c4cccc(N)c4)c4nc(c(-c5cccc(N)c5)c5ccc2[nH]5)C=C4)C=C3)c1` [Compound B2, Tetra-(3-aminophenyl)porphyrin], for which, under “25 μM, Table 13”, the inhibition at 25 µM worked out at 15%.
In the case of `Nc1ccccc1-c1c2nc(c(-c3ccccc3N)c3ccc([nH]3)c(-c3ccccc3N)c3nc(c(-c4ccccc4N)c4ccc1[nH]4)C=C3)C=C2` [Compound B3, Tetra-(2-aminophenyl)porphyrin], under “25 μM, Table 13”, the inhibition at 25 µM was 3%.
As for `C[n+]1ccc(-c2c3nc(c(-c4ccccc4)c4ccc([nH]4)c(-c4cc[n+](C)cc4)c4nc(c(-c5ccccc5)c5ccc2[nH]5)C=C4)C=C3)cc1` [Compound B4, 5,15-Diphenyl-10,20-di(N-methyl-4-pyridyl)porphyrin chloride], the inhibition at 25 µM came out at 30% (25 μM, Table 7) and 47% (25 μM, Table 13).
As to `C[n+]1ccc(-c2c3nc(c(-c4ccccc4)c4ccc([nH]4)c(-c4ccccc4)c4nc(c(-c5cc[n+](C)cc5)c5ccc2[nH]5)C=C4)C=C3)cc1` [Compound B5, 5,10-Diphenyl-15,20-di(N-methyl-4-pyridyl)porphyrin chloride], the inhibition at 25 µM (25 μM, Table 7) came to 20%.
Turning to `C[n+]1ccc(-c2c3nc(c(-c4cc[n+](C)cc4)c4ccc([nH]4)c(-c4cc[n+](C)cc4)c4nc(c(-c5ccccc5)c5ccc2[nH]5)C=C4)C=C3)cc1` [Compound B6, Tri(N-methyl-4-pyridyl)phenylporphyrin chloride], the inhibition at 25 µM (25 μM, Table 7) amounted to 15%.
For the molecule `C[n+]1ccccc1-c1c2nc(c(-c3cccc[n+]3C)c3ccc([nH]3)c(-c3cccc[n+]3C)c3nc(c(-c4cccc[n+]4C)c4ccc1[nH]4)C=C3)C=C2` [Compound B8, Tetra(N-methyl-2-pyridyl)porphyrin chloride], under “25 μM, Table 5”, the inhibition at 25 µM amounted to 0%.
In the case of `C[n+]1cccc(-c2c3nc(c(-c4ccccc4)c4ccc([nH]4)c(-c4ccc[n+](C)c4)c4nc(c(-c5ccccc5)c5ccc2[nH]5)C=C4)C=C3)c1` [Compound B9, 5,15-Diphenyl-10,20-di(N-methyl-3-pyridyl)porphyrin chloride], for the setting “25 μM, Table 7”, the inhibition at 25 µM came to 18%.
Turning to `C[n+]1cccc(-c2c3nc(c(-c4ccc[n+](C)c4)c4ccc([nH]4)c(-c4ccc[n+](C)c4)c4nc(c(-c5ccccc5)c5ccc2[nH]5)C=C4)C=C3)c1` [Compound B10, Tri(N-methyl-3-pyridyl)phenylporphyrin chloride], under “25 μM, Table 7”, the inhibition at 25 µM came out at 42%.
Regarding `C[n+]1cccc(-c2c3nc(c(-c4ccc[n+](C)c4)c4ccc([nH]4)c(-c4ccccc4)c4nc(c(-c5ccccc5)c5ccc2[nH]5)C=C4)C=C3)c1` [Compound B22], the inhibition at 25 µM (25 μM, Table 7) worked out at 20%.
As to `C[n+]1ccc(-c2c3nc(c(-c4ccccc4)c4ccc([nH]4)c(-c4ccccc4)c4nc(c(-c5ccccc5)c5ccc2[nH]5)C=C4)C=C3)cc1` [Compound B24], where the note is “25 μM, Table 7”, the inhibition at 25 µM was determined as 34%.
For the molecule `C[n+]1cccc(-c2c3nc(c(-c4ccccc4)c4ccc([nH]4)c(-c4ccccc4)c4nc(c(-c5ccccc5)c5ccc2[nH]5)C=C4)C=C3)c1` [Compound B25], the inhibition at 25 µM (25 μM, Table 7) was 35%.
Still for that read-out and setting: under `C[n+]1ccccc1-c1c2nc(c(-c3ccccc3)c3ccc([nH]3)c(-c3ccccc3)c3nc(c(-c4ccccc4)c4ccc1[nH]4)C=C3)C=C2` [Compound B26] stands 0%; under `Cc1ccc(-c2c3nc(c(-c4ccc(C)cc4)c4ccc([nH]4)c(-c4cc[n+](C)cc4)c4nc(c(-c5ccc(C)cc5)c5ccc2[nH]5)C=C4)C=C3)cc1` [Compound D9, 5-(N-methyl-4-pyridyl)-10,15,20-(4-methylphenyl)porphine chloride], 31%.
With `O=[N+]([O-])c1cc(-c2c3nc(cc4ccc([nH]4)c(-c4ccc(O)c([N+](=O)[O-])c4)c4nc(cc5ccc2[nH]5)C=C4)C=C3)ccc1O` [Compound D14], the inhibition at 25 µM (25 μM, Table 9) amounted to 55%.
For `COc1ccc(-c2c3nc(c(-c4ccc(OC)c(O)c4)c4ccc([nH]4)c(-c4ccc(OC)c(O)c4)c4nc(c(-c5ccc(OC)c(O)c5)c5ccc2[nH]5)C=C4)C=C3)cc1O` [Compound D17, 5,10,15,20-tetra-(4-methoxy-3-hydroxyphenyl)porphine], the inhibition at 25 µM (25 μM, Table 9) turned out to be 50%.
With `CCC1=C(CC)c2cc3[nH]c(cc4nc(cc5[nH]c(cc1n2)c(CC)c5CC)C(CC)=C4CC)c(CC)c3CC` [Compound H1], the inhibition at 25 µM under setting [1] worked out at 12%.
On the same count and under the same terms, under `CCC1=C(C)c2cc3[nH]c(cc4nc(cc5[nH]c(cc1n2)c(C)c5CC)C(C)=C4CC)c(CC)c3C` [Compound H2] stands 0%; under `COC(=O)CCC1=C(C)c2cc3cc(C)c(cc4nc(cc5[nH]c(cc1n2)c(CCC(=O)OC)c5C)C(C)=C4)[nH]3` [Compound H7], 14%.
Turning to `COC(=O)CCC1=C(C)c2cc3[nH]c(cc4nc(cc5[nH]c(cc1n2)c(CCC(=O)OC)c5C)C(C)=C4S(=O)(=O)O)c(C)c3S(=O)(=O)O` [Compound H8], the inhibition at 25 µM under setting [1] is 24%.
Consider `COC(=O)CCC1=C(C)c2cc3[nH]c(cc4nc(cc5[nH]c(cc1n2)c(CCC(=O)OC)c5C)C(C)=C4C(C)=O)c(C)c3C(C)=O` [Compound H9], for which the inhibition at 25 µM under setting [1] is 14%.
Consider `COC(=O)CCC1=C(C)c2cc3[nH]c(cc4nc(cc5[nH]c(cc1n2)c(CCC(=O)OC)c5C)C(C)=C4Br)c(C)c3Br` [Compound H10], for which the inhibition at 25 µM under setting [1] is 0%.
Turning to `COC(=O)CCC1=C(C)c2cc3[nH]c(cc4nc(cc5[nH]c(cc1n2)c(CCC(=O)OC)c5C)C(C)=C4C(C)O)c(C)c3C(C)O` (stereo not drawn) [Compound H11], the inhibition at 25 µM under setting [1] came to 20%.
Take `CC1=C(CCC(=O)O)c2cc3[nH]c(cc4nc(cc5[nH]c(cc1n2)c(C(C)O)c5C)C(C(C)O)=C4C)c(C)c3CCC(=O)O` (stereo not drawn) [Compound H12]: the inhibition at 25 µM under setting [1] worked out at 18%.
`CCC1=C(C)c2cc3[nH]c(cc4nc(cc5[nH]c(cc1n2)c(C)c5CC)C(C)=C4CCC(=O)O)c(CCC(=O)O)c3C` [Compound H15]: the inhibition at 25 µM under setting [1] stood at 6%.
On to `CCC1=C(C)c2cc3[nH]c(cc4nc(cc5[nH]c(cc1n2)c(C)c5CC)C(C)=C4CCC(=O)OC)c(CCC(=O)OC)c3C` [Compound H16], for which the inhibition at 25 µM under setting [1] was 0%.
Still for that read-out and setting: as for `C=CC1=C(C)c2cc3[nH]c(cc4nc(cc5[nH]c(cc1n2)c(C)c5C=C)C(C)=C4CCC(=O)OC)c(CCC(=O)OC)c3C` [Compound H17], the figure is 6%.
For the molecule `C=CC1=C(C)c2cc3[nH]c(cc4nc(cc5[nH]c(cc1n2)c(C)c5C=C)C(C)=C4CCC(=O)O)c(CCC(=O)O)c3C` [Compound H18], under setting [1], the inhibition at 25 µM turned out to be 17%.
As for `C=CC1=C(C)c2cc3[nH]c(cc4nc(cc5[nH]c(cc1n2)c(C)c5C=C)C(C)=C4CCC(=O)O)c(CCC(=O)O)c3C` [Compound H19], the “% Inhibition of telomerase” value (Table 15, concentration fixed at 25 μM, 25 µM) was found to be 16%.
Regarding `COC(=O)CCC1=C(C)c2cc3[nH]c(cc4nc(cc5[nH]c(cc1n2)c(CCC(=O)OC)c5C)C(C)=C4CCC(=O)OC)c(CCC(=O)OC)c3C` [Compound H21], the inhibition at 25 µM under setting [1] is 33%.
For `COC(=O)CCC1=C(CC(=O)OC)c2cc3[nH]c(cc4nc(cc5[nH]c(cc1n2)c(CCC(=O)OC)c5CC(=O)OC)C(CC(=O)OC)=C4CCC(=O)OC)c(CCC(=O)OC)c3CC(=O)OC` [Compound H22], the inhibition at 25 µM under setting [1] was determined as 19%.
`CC1=C(CCC(=O)O)c2cc3[nH]c(cc4nc(cc5[nH]c(cc1n2)c(C)c5CCC(=O)O)C(CCC(=O)O)=C4C)c(C)c3CCC(=O)O` [Compound H23]: under setting [1], the inhibition at 25 µM was found to be 5%.
Take `O=C(O)CCC1=C(CC(=O)O)c2cc3[nH]c(cc4nc(cc5[nH]c(cc1n2)c(CCC(=O)O)c5CC(=O)O)C(CC(=O)O)=C4CCC(=O)O)c(CCC(=O)O)c3CC(=O)O` [Compound H24]: the inhibition at 25 µM under setting [1] worked out at 4%.
Regarding `CCOC(=O)CCc1c(C)c2cc3nc(cc4[nH]c(cc5nc(cc1[nH]2)C(C)=C5CC)c(C)c4CC)C(C)=C3C(=O)OCC` [Compound H25], under setting [1], the inhibition at 25 µM was found to be 18%.
Consider `CCC1=C(C)c2cc3[nH]c(cc4nc(cc5[nH]c(cc1n2)c(C)c5CC)C(C)=C4CCCO)c(CCCO)c3C` [Compound H26], for which the inhibition at 25 µM under setting [1] stood at 23%.
For the molecule `C=CC1=C(C)c2cc3[nH]c(cc4nc(cc5[nH]c(cc1n2)c(C)c5C=C)C(C)=C4CCCO)c(CCCO)c3C` [Compound H27], under setting [1], the inhibition at 25 µM is 24%.
Regarding `CCOC(=O)CCC1=C(C)c2cc3[nH]c(cc4nc(cc5[nH]c(cc1n2)c(CC)c5C)C(CC)=C4C)c(C)c3C` [Compound H28], the inhibition at 25 µM under setting [1] came to 0%.
Take `CC(=O)C1=C(C)c2cc3[nH]c(cc4nc(cc5[nH]c(cc1n2)c(C)c5C(C)=O)C(C)=C4CCC(=O)O)c(C)c3CCC(=O)O` [Compound H29]: the inhibition at 25 µM under setting [1] turned out to be 0%.
Take `COC(=O)CCC1=C(C)c2cc3[nH]c(cc4nc(cc5[nH]c(cc1n2)c(C)c5CCC(=O)OC)C(C)=C4C)c(C)c3C` [Compound H30]: under setting [1], the inhibition at 25 µM came to 23%.
For `CC1=C(C=O)c2cc3[nH]c(cc4nc(cc5[nH]c(cc1n2)c(CCC(=O)O)c5C)C(CCC(=O)O)=C4C)c(C=O)c3C` [Compound H31], the inhibition at 25 µM under setting [1] is -10%.
In the case of `CCC1=C(C)c2cc3[nH]c(cc4nc(cc5[nH]c(cc1n2)c(C)c5CC)C(C)=C4)c(C)c3CC(=O)OC` [Compound H32], under setting [1], the inhibition at 25 µM was 0%.

Broadly, the inhibition is the change of the read-out against control, counted positive when it falls.
